Test results taken from patent publication US11680056B2, “MK2 inhibitors and uses thereof” (Xinthera, Inc., priority 2021, dated 2023).
Where two headings read alike, the source gives them in different places.

What was measured:
[1] = molecular target: p38a/MK2 (Homo sapiens (Human), UniProt P49137+Q16539); assay: p38a/MK2 biochemical assay: activation of MK2 by p38, FITC-HSP27 peptide phosphorylation (IMAP FP); conditions: 10-point 1:3 dilution, 60 pM active p38a, 1 nM inactive MK2, 10 μM ATP, 2 h incubation
Sequence of p38a/MK2 (P49137 46-400): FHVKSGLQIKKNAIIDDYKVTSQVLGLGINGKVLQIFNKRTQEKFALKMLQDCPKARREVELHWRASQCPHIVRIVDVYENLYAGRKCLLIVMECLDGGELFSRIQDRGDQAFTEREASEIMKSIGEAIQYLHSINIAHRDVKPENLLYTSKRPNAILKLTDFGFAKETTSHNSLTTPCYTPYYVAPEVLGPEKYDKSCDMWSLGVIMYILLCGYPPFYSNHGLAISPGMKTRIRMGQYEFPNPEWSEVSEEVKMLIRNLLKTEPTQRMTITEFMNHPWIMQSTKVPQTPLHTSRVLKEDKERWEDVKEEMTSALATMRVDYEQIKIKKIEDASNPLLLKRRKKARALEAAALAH
Sequence of p38a/MK2 (Q16539 whole entry, the tested form may be a part): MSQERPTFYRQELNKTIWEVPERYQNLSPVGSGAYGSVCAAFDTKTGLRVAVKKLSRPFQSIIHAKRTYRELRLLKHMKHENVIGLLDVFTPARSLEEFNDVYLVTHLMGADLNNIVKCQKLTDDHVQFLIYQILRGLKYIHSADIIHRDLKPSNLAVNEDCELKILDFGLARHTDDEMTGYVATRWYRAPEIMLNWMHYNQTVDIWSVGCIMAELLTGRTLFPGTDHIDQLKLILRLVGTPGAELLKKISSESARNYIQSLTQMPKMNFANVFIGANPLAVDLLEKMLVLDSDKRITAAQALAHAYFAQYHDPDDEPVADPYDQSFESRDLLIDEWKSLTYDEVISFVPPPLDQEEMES
Method: (§1) Expression vectors of the recombinant MK2 and PRAK kinases were constructed by cloning of the codon optimized gene sequences of MK2 (Uniprot ID P49137, amino acid fragment F46-H400), or PRAK (Uniprot ID Q81W41, amino acid fragment M1-Q471) into pGEX-4T1 (GE) for over expression of these kinases with N-terminal GST-tag. Protein expression was carried out in E. coli BL21 by growing the hosts in TB medium, induction of protein expression with 0.5 mM IPTG at approximate 0.8 OD600, and incubation of the cultures at 18° C. for 14-20 hours afterwards. The harvested cells were resuspended in […] of Lysis buffer (50 mM Tris-HCl, pH 8.0, 500 mM NaCl, 1 mM DTT, 5% glycerol, and 1 mM PMSF) per gram of wet cell mass and homogenized at 4° C. in a microfluidizer (ATS, Suzhou, China) at 14,000 psi pressure, 3 passes. The cell lysates were clarified by centrifugation and the supernatants containing the GST-fusion proteins were purified by affinity chromatography using GSH-Sepharose (GE) gravity flow columns pre-equilibrated in Buffer A (50 mM Tris-HCl, pH 8.0, 500 mM NaCl, 1 mM DTT, and 5% glycerol). After thorough washing of the columns with Buffer A, the bound GST-proteins were eluted by Buffer B (50 mM Tris, pH 8.0, 500 mM NaCl, 1 mM DTT, 5% glycerol, 10 mM glutathione), followed by size-exclusion purification on Superdex 200 column equilibrated in Buffer A. The purified proteins were concentrated to approximately 1 mg/ml and stored at −80° C.
This study evaluates the inhibitory potency of invention compound on p38/MK2 pathway vs p38/PRAK pathway. More specially the compound concentration (IC50) was determined that inhibited half of the maximal activation of MK2 or PRAK by p38. MK2 activation study was set up without or with a serial of 10-point 1:[…], and PRAK activation study was set up without or with a serial of 10-point 1:3 dilution of invention compound at top dose of 300 μM. The MK2 and PRAK activity were determined by the phosphorylation level of HSP27 peptide conjugated with FITC.
(§2) After 2 h incubation of the reaction mixture with various concentration of invention compound (200 nL), 60 μL 1×IMAP solution Mixture (Molecular Devices, Cat R8127) was added to the reaction mixture and incubated for another half hour. The signal was then read by Synergy™ Neo2 Multi-Mode Microplate Reader with filter setting (Ex/Em=485 nm/FITC FP-P pol 528 nm & FITC FP-S pol 528 nm)
(§3) The signal was then normalized to vehicle control and fitted in Xfit to generate IC50. The selectivity of MK2 over PRAK was calculated by the formular Selectivity=IC50 of PRAK/IC50 of MK2.

[2] = molecular target: p38a/PRAK (Homo sapiens (Human), UniProt Q16539); assay: p38a/PRAK biochemical assay: activation of PRAK by p38, FITC-HSP27 peptide phosphorylation (IMAP FP); conditions: 10-point 1:3 dilution, top dose 300 μM; 60 pM active p38a, 1 nM inactive PRAK, 10 μM ATP, 2 h incubation; read-out: p38a/PRAK Enzyme pIC50 (converted)
Sequence of p38a/PRAK (Q16539 whole entry): as the sequence (Q16539 whole entry, the tested form may be a part) above
Method: as §1
This study evaluates the inhibitory potency of invention compound on p38/MK2 pathway vs p38/PRAK pathway. More specially the compound concentration (IC50) was determined that inhibited half of the maximal activation of MK2 or PRAK by p38. MK2 activation study was set up without or with a serial of 10-point 1:3 dilution of invention compound at top dose of […], and PRAK activation study was set up without or with a serial of 10-point 1:3 dilution of invention compound at top dose of 300 μM. The MK2 and PRAK activity were determined by the phosphorylation level of HSP27 peptide conjugated with FITC.
as §2, §3

[3] = top dose 1 μM, read-out: p38a/MK2 (1 μM) Enzyme pIC50 (converted)
[4] = top dose 10 μM, read-out: p38a/MK2 (10 μM) Enzyme pIC50 (converted)

| SMILES | IC50 [1, 3] [nM] | IC50 [2] [nM] | p38a/MK2 (10 μM) Enzyme pIC50 ([1]; top dose 10 μM) | IC50 [1, 4] [nM] |
| --- | --- | --- | --- | --- |
| Cc1cnc(-n2ccc(C(C)(C)O)n2)c(C)c1-n1c(C)cc(OCc2ncc(F)cc2F)c(Cl)c1=O (single isomer, unassigned) [Example 50A, rel-3-chloro-4-[(3,5-difluoropyridin-2-yl)methoxy]-2′-[3-(2-hydroxypropan-2-yl)pyrazol-1-yl]-3′,5′,6-trimethyl-[1,4′-bipyridin]-2-one] | 12.6 | 10000 |  |  |
| [2H]C([2H])(Oc1cc(C)n(-c2c(C)cnc(-c3ccnc(C(O)(C([2H])([2H])[2H])C([2H])([2H])[2H])n3)c2F)c(=O)c1Cl)c1ncc(F)cc1F (single isomer, unassigned) [Example 67A, rel-3-chloro-4-((3,5-difluoropyridin-2-yl)methoxy-d2)-3′-fluoro-2′-(2-(2-hydroxypropan-2-yl-1,1,1,3,3,3-d6)pyrimidin-4-yl)-5′,6-dimethyl-2H-[1,4′-bipyridin]-2-one] | 1.58 | 316 |  |  |
| Cc1cnc(-c2cccc(C(C)(O)CO)n2)cc1-n1c(C)cc(OCc2ncc(F)cc2F)c(Cl)c1=O (single isomer, unassigned) [Example 36C, rel-3-chloro-4-[(3,5-difluoropyridin-2-yl)methoxy]-2′-[6-(1,2-dihydroxypropan-2-yl)pyridin-2-yl]-5′,6-dimethyl-[1,4′-bipyridin]-2-one] | > 1000 | > 316000 |  |  |
| Cc1sc(-c2ccnc(C(C)(C)O)n2)cc1-n1c(C)cc(OCc2ncc(F)cc2F)c(Cl)c1=O (single isomer, unassigned) [Example 33B, 3-chloro-4-[(3,5-difluoropyridin-2-yl)methoxy]-1-{5-[2-(2-hydroxypropan-2-yl)pyrimidin-4-yl]-2-methylthiophen-3-yl}-6-methylpyridin-2-one] |  | 50100 | 6.5 |  |
| Cc1cnc(-c2ccnc([C@@](C)(O)C3CC3)n2)cc1-n1c(C)cc(OCc2ncc(F)cc2F)c(Cl)c1=O (racemic) [Example 6, 3-chloro-2′-[2-(1-cyclopropyl-1-hydroxyethyl)pyrimidin-4-yl]-4-[(3,5-difluoropyridin-2-yl)methoxy]-5′,6-dimethyl-[1,4′-bipyridin]-2-one] |  | 12600 | 7.5 |  |
| Cc1cnc(COc2cc(C)n(-c3cc(-c4ccnc(C(C)(C)O)n4)ncc3C)c(=O)c2Cl)c(F)c1 (single isomer, unassigned) [Example 23A, rel-3-chloro-4-[(3-fluoro-5-methylpyridin-2-yl)methoxy]-2′-[2-(2-hydroxypropan-2-yl)pyrimidin-4-yl]-5′,6-dimethyl-[1,4′-bipyridin]-2-one] | 3.16 | 12600 |  |  |
| Cc1cnc(-c2ccnc(C(O)C3CC3)n2)cc1-n1c(C)cc(OCc2ncc(F)cc2F)c(Cl)c1=O (single isomer, unassigned) [Example 35C, rel-3-chloro-2′-{2-[cyclopropyl(hydroxy)methyl]pyrimidin-4-yl}-4-[(3,5-difluoropyridin-2-yl)methoxy]-5′,6-dimethyl-[1,4′-bipyridin]-2-one] | > 1000 | > 316000 |  |  |
| Cc1cnc(-c2ccnc(C(C)(C)O)c2F)cc1-n1c(C)cc(OCc2ncc(F)cc2F)c(Cl)c1=O (atropisomer, axis not shown) [Example 56A, 3-chloro-4-[(3,5-difluoropyridin-2-yl)methoxy]-1-[3′-fluoro-2′-(2-hydroxypropan-2-yl)-5-methyl-[2,4′-bipyridin]-4-yl]-6-methylpyridin-2-one] | 2 | 1580 |  |  |
| [2H]C([2H])(Oc1cc(C)n(-c2c(C)cnc(-c3ccnc(C(C)(C)CO)n3)c2F)c(=O)c1Cl)c1ncc(F)cc1F (single isomer, unassigned) [Example 59A, rel-3-chloro-4-((3,5-difluoropyridin-2-yl)methoxy-d2)-3′-fluoro-2′-(2-(1-hydroxy-2-methylpropan-2-yl)pyrimidin-4-yl)-5′,6-dimethyl-2H-[1,4′-bipyridin]-2-one] | > 1000 | > 316000 |  |  |
| Cc1cnc(-c2ccnc([C@@H](O)C3CC3)n2)cc1-n1c(C)cc(OCc2ncc(F)cc2F)c(Cl)c1=O (single isomer, unassigned) [Example 35D, rel-3-chloro-2′-{2-[cyclopropyl(hydroxy)methyl]pyrimidin-4-yl}-4-[(3,5-difluoropyridin-2-yl)methoxy]-5′,6-dimethyl-[1,4′-bipyridin]-2-one] | > 1000 | > 316000 |  |  |
| Cc1cnc(COc2cc(C)n(-c3cc(-c4ccnc(C(C)(C)O)n4)ncc3C)c(=O)c2Cl)c(F)c1 (single isomer, unassigned) [Example 23B, rel-3-chloro-4-[(3-fluoro-5-methylpyridin-2-yl)methoxy]-2′-[2-(2-hydroxypropan-2-yl)pyrimidin-4-yl]-5′,6-dimethyl-[1,4′-bipyridin]-2-one] |  | > 316000 |  | > 10000 |
| [2H]C([2H])(Oc1cc(C)n(-c2c(C)cnc(-c3cccc(C(C)(C)O)[n+]3[O-])c2F)c(=O)c1Cl)c1ncc(F)cc1F [Example 68A, rel-4′-{3-chloro-4-[(3,5-difluoropyridin-2-yl) (2H2)methoxy]-6-methyl-2-oxopyridin-1-yl}-3′-fluoro-6-(2-hydroxypropan-2-yl)-5′-methyl-[2,2′-bipyridin]-1-ium-1-olate] | > 100 | > 316000 |  |  |
| Cc1cnc(-c2ccc3c(n2)C(C)(O)CC3)cc1-n1c(C)cc(OCc2ncc(F)cc2F)c(Cl)c1=O (single isomer, unassigned) [Example 32A] | 20 | 6310 |  |  |
| [2H]C([2H])(Oc1cc(C)n(-c2c(C)cnc(-c3cccc(C(C)(C)O)[n+]3[O-])c2F)c(=O)c1Cl)c1ncc(F)cc1F (single isomer, unassigned) [Example 68B, rel-4′-{3-chloro-4-[(3,5-difluoropyridin-2-yl) (2H2)methoxy]-6-methyl-2-oxopyridin-1-yl}-3′-fluoro-6-(2-hydroxypropan-2-yl)-5′-methyl-[2,2′-bipyridin]-1-ium-1-olate] | 0.2 | 398 |  |  |
| Cc1cnnc(COc2cc(C)n(-c3cc(-c4ccnc(C(C)(C)O)n4)ncc3C)c(=O)c2Cl)c1 [Example 28A, rel-3-chloro-2′-[2-(2-hydroxypropan-2-yl)pyrimidin-4-yl]-5′,6-dimethyl-4-[(5-methylpyridazin-3-yl)methoxy]-[1,4′-bipyridin]-2-one] |  | > 316000 |  | 3980 |
| Cc1cnc(-c2ccc3c(n2)C(C)(O)CC3)cc1-n1c(C)cc(OCc2ncc(F)cc2F)c(Cl)c1=O (single isomer, unassigned) [Example 32D] |  | > 316000 |  | 1260 |
| Cc1cnc(-c2cccc(C(C)(C)O)[n+]2[O-])c(F)c1-n1c(C)cc(OCc2ncc(F)cc2F)c(Cl)c1=O (single isomer, unassigned) [Example 62B, rel-3-chloro-4-((3,5-difluoropyridin-2-yl)methoxy)-3′-fluoro-6″-(2-hydroxypropan-2-yl)-5′,6-dimethyl-2-oxo-2H-[1,4′:2′,2″-terpyridine] 1″-oxide] | > 100 | > 316000 |  |  |
